Assay results taken from patent publication US4806537A (City of Hope, priority 1988, dated 1989).
Where two headings read alike, the source gives them in different places.

How the values were obtained:
patients with AD = conditions: cited from earlier work
mice = conditions: cited from earlier work
[1] = in vivo; cited from earlier work
K^+ transport = assay: K^+ transport: ^86 Rb uptake by P3 membrane fractions of whole mouse brain; assay type: biochemical, Swiss mice; conditions: for IC50: ^86 Rb uptake, P3 fraction, 0° C., pH 7, 5 seconds; for K^+ transport inhibition activity relative to amodiaquin (in words): fraction of amodiaquin's activity; for K^+ Transport Relative Potency: relative to amodiaquin = 1; for Concentration inhibiting K^+ transport (selection criterion met): submillimolar concentrations
Procedure: To obtain the data set forth in Table I, K^+ -transport was measured using P3 membrane fractions prepared from whole brains of Swiss mice. […] The resulting supernatant was centrifuged at 17,000 g for 15 minutes, and the supernatant from the latter was centrifuged at 70,000 g for 1 hour to pellet the P3 fraction. The P3 pellet was washed by resuspension in 50 mM Tris-citrate (pH 7.3). After 10 minutes on ice, the suspension was centrifuged at 70,000 g for 10 minutes. This washing procedure was repeated twice using distilled water for the resuspension. […] The suspension (2-3 mg protein/ml) was stabilized on ice for 1 hour prior to use. Uptake of ^86 Rb (radioactive) was used to assess the K^+ -transport of the P3 articles. Many published experiments have shown the ^86 Rb, with a half-life 36 times longer than ^42 K, is a suitable tracer for K. Rb permeates neuronal K channels as well as does K itself.
After filtration of the samples, the filters were washed rapidly three times with 10^-3 M triethanolamine containing 0.1M RbCl (non-radioactive) and counted in ACS liquid scintillation cocktail (Amersham). In calculating the results, the uptake found in the presence of 0.1M non-radioactive RbCl was subtracted from that found in the presence of various concentrations of the test substances in the presence of 10^-6 M ^86 RbCl alone. […] Between 0.2 and 0.5 mg/ml usually were employed. The results were normalized by calculating them as percentages of the uptake observed with 10^-6 M ^86 RbCl alone.

Acetylcholinesterase = molecular target: T1, Acetylcholinesterase (Electrophorus electricus, UniProt O42275); assay: Acetylcholinesterase activity, acetylthiocholine substrate, colorimetric (Ellman); assay type: biochemical, electric eel; conditions: for Cholinesterase inhibitory potency relative to amodiaquin (in words): fraction of amodiaquin's inhibitory potency; for Acetylcholinesterase Activity Rank Order: rank among the five substances; for Acetylcholinesterase Activity Relative Potency: relative to amodiaquin = 1
T1 construct: The enzyme employed was prepared from the electric organ of the electric eel; from tissue; host or cells: electric organ of the electric eel
T1 sequence (O42275 24-633): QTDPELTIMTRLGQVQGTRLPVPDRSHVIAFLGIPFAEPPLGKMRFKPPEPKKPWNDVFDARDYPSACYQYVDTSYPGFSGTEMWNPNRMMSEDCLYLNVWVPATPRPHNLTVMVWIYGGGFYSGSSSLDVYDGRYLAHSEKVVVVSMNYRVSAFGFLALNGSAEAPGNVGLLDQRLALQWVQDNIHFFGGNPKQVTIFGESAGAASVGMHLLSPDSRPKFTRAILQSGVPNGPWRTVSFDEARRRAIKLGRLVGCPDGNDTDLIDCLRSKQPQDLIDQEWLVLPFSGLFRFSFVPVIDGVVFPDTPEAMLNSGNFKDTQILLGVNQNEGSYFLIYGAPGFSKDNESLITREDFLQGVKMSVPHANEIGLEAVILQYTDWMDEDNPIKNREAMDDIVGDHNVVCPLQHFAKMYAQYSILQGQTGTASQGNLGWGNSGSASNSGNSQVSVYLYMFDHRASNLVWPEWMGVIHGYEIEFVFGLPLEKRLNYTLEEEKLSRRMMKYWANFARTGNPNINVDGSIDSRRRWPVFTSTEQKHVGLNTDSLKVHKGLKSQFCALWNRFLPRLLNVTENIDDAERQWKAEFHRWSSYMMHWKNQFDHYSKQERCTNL
Procedure: Cholinesterase activity reported in Table I was measured by a standard procedure. The enzyme employed was prepared from the electric organ of the electric eel. It is known to have the same properties as the enzyme of mammalian nervous tissue. Acetylthiocholine was used as substrate.
Inhibitory potency of substances was determined by measuring enzyme activity in the absence and presence of varying concentrations of the test substances.

cholinesterase = conditions: cited from earlier work

| SMILES | Effect on symptoms of AD (patients with AD) | Effect on behavioral deficit produced by anoxia (mice) | Effect on general anesthesia [1] | IC50 (K^+ transport) | IC50 (Acetylcholinesterase) | Cholinesterase inhibition (cholinesterase) | K^+ transport inhibition activity relative to amodiaquin (in words) (K^+ transport) | K^+ Transport Relative Potency (K^+ transport) | Concentration inhibiting K^+ transport (selection criterion met) (K^+ transport) | IC50 (Acetylcholinesterase; electric eel enzyme, acetylthiocholine substrate, read-out: Acetylcholinesterase Activity IC50) | Cholinesterase inhibitory potency relative to amodiaquin (in words) (Acetylcholinesterase) | Acetylcholinesterase Activity Rank Order (Acetylcholinesterase) | Acetylcholinesterase Activity Relative Potency (Acetylcholinesterase) |
| --- | --- | --- | --- | --- | --- | --- | --- | --- | --- | --- | --- | --- | --- |
| Nc1ccncc1 [4AP, 4-aminopyridine] | may improve symptoms in some patients with AD | partially reversed the behavioral deficit | rapidly overcomes the effects of general anesthesia |  |  |  |  |  |  |  |  |  |  |
| Nc1c2ccccc2nc2ccccc12 [9-aminoacridine] |  |  |  | 70 µM |  |  |  |  |  |  |  |  |  |
| CCN(CC)Cc1cc(Nc2ccnc3cc(Cl)ccc23)ccc1O [Amodiaquin, amodiaquin] |  |  |  | 40 µM | 0.004 µM | effective cholinesterase inhibitor |  |  |  |  |  |  |  |
| CCN(CC)CCCC(C)Nc1ccnc2cc(Cl)ccc12 (centres unmarked) [Chloroquine, chloroquine] |  |  |  | 600 µM |  |  | approximately one-twentieth | 0.067 | ≤ 10^-3 M | 4 µM | less than one-thousandth | 5(4) | 0.001 |
| CCN(CC)CCCC(C)Nc1c2ccc(Cl)cc2nc2ccc(OC)cc12 (centres unmarked) [Quinacrine, quinacrine] |  |  |  | 90 µM | 4 µM |  | approximately one-half | 0.44 | ≤ 10^-3 M |  | less than one-thousandth | 4(5) | 0.001 |
